biological target: KRas G12D (Homo sapiens (Human), UniProt P01116, G12D); assay: KRas G12D Binding Assay (TR-FRET displacement of Cy5 labelled tracer); settings: GDP-loaded KRAS G12D (amino acids 1:169), 60 minute incubation at 22° C.
Method: After a 60 minute incubation at 22° C., the reaction was measured using a PerkinElmer EnVision multimode plate reader via TR-FRET dual wavelength detection, and the percent of control (POC) calculated using a ratiometric emission factor. […] The POC values were fit to a 4-parameter logistic curve and the IC50 value was determined as the concentration where the curve crosses 50 POC.
ND stands for “not determined.”

Chain of KRas G12D (P01116 other isoform, or with tags, fused parts or gaps G12D): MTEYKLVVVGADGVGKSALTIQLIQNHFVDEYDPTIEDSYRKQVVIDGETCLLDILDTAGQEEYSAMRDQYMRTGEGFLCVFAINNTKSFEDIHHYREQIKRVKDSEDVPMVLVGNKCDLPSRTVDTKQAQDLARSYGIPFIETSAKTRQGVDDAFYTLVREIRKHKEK

| Structure (SMILES) | IC50 [nM] |
| --- | --- |
| CNC(=O)O[C@@H]1CN2CCC[C@]2(COc2nc(N3C[C@H]4CC[C@@H](C3)N4)c3cnc(-c4cccc5cccc(Cl)c45)c(F)c3n2)C1 [Example 435, (2S,7aR)-7a-(((4-((1R,5S)-3,8-diazabicyclo[3.2.1]octan-3-yl)-7-(8-chloronaphthalen-1-yl)-8-fluoropyrido[4,3-d]pyrimidin-2-yl)oxy)methyl)hexahydro-1H-pyrrolizin-2-yl methylcarbamate] | 28.2 |
| CO[C@H]1CN2CCC[C@]2(COc2nc(N3CC4CCC(C3)N4)c3cnc(-c4cc(O)cc5cccc(F)c45)c(F)c3n2)C1 (stereo in doubt) [Example 406, 4-(4-((1R,5S)-3,8-diazabicyclo[3.2.1]octan-3-yl)-8-fluoro-2-((2-methoxytetrahydro-1H-pyrrolizin-7a(5H)-yl)methoxy)pyrido[4,3-d]pyrimidin-7-yl)-5-fluoronaphthalen-2-ol] | 0.9 |
| CCc1c(F)ccc2cc(O)cc(-c3ncc4c(N5C[C@H]6CC[C@@H](C5)N6)nc(OCC56CCCN5CCC6)nc4c3F)c12 [Example 314, 4-(4-((1R,5S)-3,8-diazabicyclo[3.2.1]octan-3-yl)-8-fluoro-2-((hexahydro-1H-pyrrolizin-7a-yl)methoxy)pyrido[4,3-d]pyrimidin-7-yl)-5-ethyl-6-fluoronaphthalen-2-ol] | 0.6 |
| Fc1ccc2cccc(-c3ncc4c(N5CC6CCC(C5)N6)nc(OC[C@@]56CCCN5C[C@H](F)C6)nc4c3F)c2c1Cl (racemic) [Example 336, 4-((1R,5S)-3,8-diazabicyclo[3.2.1]octan-3-yl)-7-(8-chloro-7-fluoronaphthalen-1-yl)-8-fluoro-2-((2-fluorotetrahydro-1H-pyrrolizin-7a(5H)-yl)methoxy)pyrido[4,3-d]pyrimidine (racemic, trans)] | 3.1 |
| C#Cc1cccc2cc(O)cc(-c3ncc4c(N5C[C@H]6CC[C@@H](C5)N6)nc(OCC56CCCN5CCC6)nc4c3F)c12 [Example 185, 4-(4-((1R,5S)-3,8-diazabicyclo[3.2.1]octan-3-yl)-8-fluoro-2-((hexahydro-1H-pyrrolizin-7a-yl)methoxy)pyrido[4,3-d]pyrimidin-7-yl)-5-ethynylnaphthalen-2-ol] | 0.3 |
| COCCO[C@@H]1C[C@@H](COc2nc(N3C[C@H]4CC[C@@H](C3)N4)c3cnc(-c4cccc5cccc(Cl)c45)c(F)c3n2)N(C)C1 [Example 202, 4-((1R,5S)-3,8-diazabicyclo[3.2.1]octan-3-yl)-7-(8-chloronaphthalen-1-yl)-8-fluoro-2-(((2S,4R)-4-(2-methoxyethoxy)-1-methylpyrrolidin-2-yl)methoxy)pyrido[4,3-d]pyrimidine] | 94 |
| O[C@@H]1C[C@@H]2CN(c3nc(OCCn4ccnc4C(F)F)nc4c(F)c(-c5cccc6cccc(Cl)c56)ncc34)C[C@H]1N2 [Example 172, (1R,5R,6R)-3-(7-(8-chloronaphthalen-1-yl)-2-(2-(2-(difluoromethyl)-1H-imidazol-1-yl)ethoxy)-8-fluoropyrido[4,3-d]pyrimidin-4-yl)-3,8-diazabicyclo[3.2.1]octan-6-ol] | 689 |
| COC(=O)NC[C@H]1CC[C@@]2(COc3nc(N4CC5CCC(C4)N5)c4cnc(-c5cccc6cccc(Cl)c56)c(F)c4n3)CCCN12 [Example 411, methyl ((7a-(((4-(3,8-diazabicyclo[3.2.1]octan-3-yl)-7-(8-chloronaphthalen-1-yl)-8-fluoropyrido[4,3-d]pyrimidin-2-yl)oxy)methyl)hexahydro-1H-pyrrolizin-3-yl)methyl)carbamate] | 17 |
| CC(C)Cc1ccccc1-c1ncc2c(N3CC4CCC(C3)N4)nc(OC[C@@]34CCCN3C[C@H](F)C4)nc2c1F (stereo in doubt) [Example 417, 4-((1R,5S)-3,8-diazabicyclo[3.2.1]octan-3-yl)-8-fluoro-2-((2-fluorotetrahydro-1H-pyrrolizin-7a(5H)-yl)methoxy)-7-(2-isobutylphenyl)pyrido[4,3-d]pyrimidine] | 595 |
| N#Cc1ccccc1-c1ncc2c(N3CC4CCC(C3)N4)nc(OC[C@@]34CCCN3C[C@H](F)C4)nc2c1F (stereo in doubt) [Example 409, 2-(4-((1R,5S)-3,8-diazabicyclo[3.2.1]octan-3-yl)-8-fluoro-2-((2-fluorotetrahydro-1H-pyrrolizin-7a(5H)-yl)methoxy)pyrido[4,3-d]pyrimidin-7-yl)benzonitrile] | 2230 |
| CO[C@H]1CN2CCC[C@]2(COc2nc(N3CC4CCC(C3)N4)c3cnc(-c4cccc5cccc(Cl)c45)c(F)c3n2)C1 [Example 225, 4-((1R,5S)-3,8-diazabicyclo[3.2.1]octan-3-yl)-7-(8-chloronaphthalen-1-yl)-8-fluoro-2-((2-methoxytetrahydro-1H-pyrrolizin-7a(5H)-yl)methoxy)pyrido[4,3-d]pyrimidine bis-2,2,2-trifluoroacetate] | 9.2 |
| CCCc1ccccc1-c1ncc2c(N3C[C@H]4CC[C@@H](C3)N4)nc(OCC34CCCN3CCC4)nc2c1F [Example 447, 4-((1R,5S)-3,8-diazabicyclo[3.2.1]octan-3-yl)-8-fluoro-7-(2-propylphenyl)-2-((tetrahydro-1H-pyrrolizin-7a-(5H)-yl)methoxy)pyrido[4,3-d]pyrimidine] | 297 |
| O=C(OC[C@H]1CC[C@@]2(COc3nc(N4CC5CCC(C4)N5)c4cnc(-c5cccc6cccc(Cl)c56)c(F)c4n3)CCCN12)N1CCOCC1 [Example 445, ((3R,7aR)-7a-(((4-(3,8-diazabicyclo[3.2.1]octan-3-yl)-7-(8-chloronaphthalen-1-yl)-8-fluoropyrido[4,3-d]pyrimidin-2-yl)oxy)methyl)hexahydro-1H-pyrrolizin-3-yl)methyl morpholine-4-carboxylate] | 2.7 |
| CN1C[C@H](NC(=O)c2ccc(C=O)cc2)C[C@H]1COc1nc(N2C[C@H]3CC[C@@H](C2)N3)c2cnc(-c3cccc4cccc(Cl)c34)c(F)c2n1 [Example 353, N-((3R,5S)-5-(((4-((1R,5S)-3,8-diazabicyclo[3.2.1]octan-3-yl)-7-(8-chloronaphthalen-1-yl)-8-fluoropyrido[4,3-d]pyrimidin-2-yl)oxy)methyl)-1-methylpyrrolidin-3-yl)-4-formylbenzamide] | 333 |
| N#CC[C@@H]1C[C@@H]2CN(c3nc(OCC45CCCN4CCC5)nc4c(F)c(-c5cc(O)cc6ccccc56)ncc34)C[C@H]1N2 [Example 338, 2-((1R,5S,6S)-3-(8-fluoro-7-(3-hydroxynaphthalen-1-yl)-2-((tetrahydro-1H-pyrrolizin-7a(5H)-yl)methoxy)pyrido[4,3-d]pyrimidin-4-yl)-3,8-diazabicyclo[3.2.1]octan-6-yl)acetonitrile] | 33.1 |
| Cn1cc(CCOc2nc(N3C[C@H]4CC[C@@H](C3)N4)c3cnc(-c4cccc5cccc(Cl)c45)c(F)c3n2)cn1 [Example 146, 4-((1R,5S)-3,8-diazabicyclo[3.2.1]octan-3-yl)-7-(8-chloronaphthalen-1-yl)-8-fluoro-2-(2-(1-methyl-1H-pyrazol-4-yl)ethoxy)pyrido[4,3-d]pyrimidine] | 2290 |
| CN1CCC(F)(COc2nc(N3C[C@H]4CC[C@@H](C3)N4)c3cnc(-c4cccc5cccc(Cl)c45)c(F)c3n2)CC1 [Example 398, 4-((1R,5S)-3,8-diazabicyclo[3.2.1]octan-3-yl)-7-(8-chloronaphthalen-1-yl)-8-fluoro-2-((4-fluoro-1-methylpiperidin-4-yl)methoxy)pyrido[4,3-d]pyrimidine] | 593 |
